From patent EP1994923A2, “Cosmetic and dermatological compositions for dry skin” (Henkel AG & Co. KGaA, priority 2007, dated 2008)

Test system: Aquaporine (AQ3)
Assay: Influence on aquaporin synthesis in a skin model (indirect immunohistology)
Assay type: cell-based
Conditions: skin model as in WO 03/053394 A2; 10 mg/ml test solution (extracts: 10 mg dry substance per ml); added systemically to the medium every two days; frozen after 6 days; cryosections
Protocol: An einem Hautmodell, wie in WO 03/053394 A2 beschrieben, wurde der Einfluss folgender Substanzen auf die Aquaporinsynthese überprüft: • 1.) Ergothionein (10 mg/ml Testlösung) • 2.) Wässriger Extrakt aus Laminaria digitata (mit einem hohen Anteil an Laminarin; verwendet wurde das Handelsprodukt Phycojuvenine in einer solchen Menge, dass die Testlösung eine Konzentration von 10 mg Extrakt-Trockensubstanz pro ml aufwies) • 3.) Wässriges Proteinhydrolysat von Hefeproteinen (verwendet wurde das Handelsprodukt Biodynes TRF Powder von Arch Chemicals Inc. in einer von 10 mg Extrakt-Trockensubstanz pro ml Testlösung)
Die Hautmodelle wurden nach Ankunft in frisches Medium gesetzt. Nach Vorinkubation über Nacht wurden sie alle zwei Tage mit den Testsubstanzen behandelt, indem der Wirkstoff systemisch in das Medium gegeben wurde. Die Kulturen wurden nach 6 Tagen für Cryoschnitte bei -80 °C eingefroren. Zum Zeitpunkt 0 wurden Kontrollproben eingefroren.
Zum Nachweis von Aquaporinen (AQ3) wurde die indirekte Immunhistologie angewendet. Hierbei bindet ein unkonjungierter Primärantikörper an das Antigen. Anschließend wird ein Sekundärantikörper eingesetzt, der gegen den Primärantikörper gerichtet ist.

In the case of `C[N+](C)(C)[C@@H](Cc1cnc(S)[nH]1)C(=O)[O-]` [Ergothionein, 2-Mercapto-N^αN^αN^α-trimethyl-L-histidinium-Betain], the “Aquaporinsynthese (Induktion der Aquaporine (AQ3))” value is reported as “stimulierten”.
